In patent US7205011B2, “Anti-inflammatory activity of a specific turmeric extract” (Board of Regents, Acting for and on behalf of, University …, priority 2003, dated 2007):
In brackets after ≈: the same amount, converted by molar mass. Where two headings read alike, the source gives them in different places.

Assays:
[1] = system: LPS-induced TNF-α production; test: Inhibition of LPS-induced TNF-α production in PMA-differentiated HL-60 cells (ELISA); type: cell-based; settings: Homo sapiens, read-out: IC50 TNF-α (50% inhibition of LPS-induced mediator production)
[2] = system: LPS-induced PGE2 production; test: Inhibition of LPS-induced PGE2 production in PMA-differentiated HL-60 cells (ELISA); type: cell-based; settings: Homo sapiens
TNF-α = settings: Chan et al. 1995; Abe et al. 1999; cited from earlier work
COX-2 mRNA = test: COX-2 expression assay (Quantikine mRNA) in LPS-stimulated HL-60 cells; settings: HL-60 cells + LPS
COX-2 expression = settings: Lee et al. 2002; IC50 values not reported; cited from earlier work
[3] = Table 1, curcuminoids from fraction 5, HL-60 cells, LPS 1 μg/ml, 24 hrs
[4] = Table 1, curcuminoids from fraction 5, HL-60 cells, LPS 1 μg/ml, 24 hrs, read-out: IC50 PGE2 (50% inhibition of LPS-induced mediator production)

## O=C(/C=C/c1ccc(O)cc1)CC(=O)/C=C/c1ccc(O)cc1 (single isomer, unassigned) [Bisdemethoxycurcumin, bisdemethoxycurcumin]
[1]; [3]
  IC50: 24.6 µg/mL (≈ 79.8 µM)
[2]; [4]
  IC50: 1.2 µg/mL (≈ 3.89 µM)

## COc1cc(/C=C/C(=O)CC(=O)/C=C/c2ccc(O)c(OC)c2)ccc1O (single isomer, unassigned) [Curcumin, curcumin]
TNF-α
  concentration producing 50% decrease in production of TNF-α: 2 to 10 µg/mL
[1]; [3]
  IC50: 28.8 µg/mL (≈ 78.2 µM)
[2]; [4]
  IC50: 0.45 µg/mL (≈ 1.22 µM)
COX-2 mRNA; 0.5 μg/mL, 24 hrs, relative to LPS alone = 100%
  inhibition (decrease) of COX-2 expression: greater than 50%
COX-2 mRNA; 1.0 μg/ml, 24 hrs, relative to LPS alone = 100%
  inhibition of COX-2 expression: greater than 50%
COX-2 mRNA; concentration not given, result in words
  effect on COX-2 expression / COX-2 mRNA levels: inhibited COX-2 expression

## COc1cc(/C=C/C(O)=C/C(=O)/C=C/c2ccc(O)cc2)ccc1O (single isomer, unassigned) [Demethoxycurcumin, demethoxycurcumin]
[1]; HL-60, 24 h
  IC50: 24.7 µg/mL (≈ 73 µM)
[2]; HL-60, 24 h, read-out: IC50 PGE2 (50% inhibition of LPS-induced mediator production)
  IC50: 2.6 µg/mL (≈ 7.68 µM)

## COc1ccc2c(c1)c(CC(=O)O)c(C)n2C(=O)c1ccc(Cl)cc1 [indomethacin]
[2]; HL-60 cells, LPS 1 μg/ml, 24 hrs, read-out: IC50 for LPS-induced PGE2 production
  IC50: 0.052 µg/mL (≈ 0.145 µM)

## CC(C)=CCC[C@@H](C)c1ccc(C)c(O)c1 [xanthorrhizol]
COX-2 expression
  concentrations showing inhibition of COX-2 expression: 5 to 10 µg/mL
